Structures can show the parent of a compound that is named as a salt.
How the values were obtained:
[1] = test system: ISC-enriched organoids; experiment: Primary screen, 384-well 2.5-D organoid differentiation (ENR+CD, 6 days): basal lysozyme secretion (LYZ.NS); assay type: cell-based, murine; conditions: primary screen; for SSMD.LYZ.NS: strictly standardized mean difference; for Dose.FC.LYZ.NS: FC vs plate median; for Z.LYZ.NS: standard z score
Description: (§1) High-throughput screening.

[2] = test system: ISC-enriched organoids; experiment: Primary screen, 384-well 2.5-D organoid differentiation (ENR+CD, 6 days): carbachol-induced lysozyme secretion (LYZ.S); assay type: cell-based, murine; conditions: primary screen; for Z.LYZ.S: standard z score; for SSMD.LYZ.S: strictly standardized mean difference; for Dose.FC.LYZ.S: FC vs plate median
Description: as §1

[3] = test system: ISC-enriched organoids; experiment: Primary screen, 384-well 2.5-D organoid differentiation (ENR+CD, 6 days, Target Selective Inhibitor Library, vs whole-plate median): ATP (CellTiter-Glo 3D, CTG); conditions: primary screen; for Z.CTG: standard z score; for SSMD.CTG: strictly standardized mean difference; for Dose.FC.CTG: FC vs plate median
[4] = 1st of the 4 dose lines of the treatment (dose not given)
[5] = 2nd of the 4 dose lines of the treatment (dose not given)
[6] = 3rd of the 4 dose lines of the treatment (dose not given)
[7] = 4th of the 4 dose lines of the treatment (dose not given)

SMILES	SSMD.LYZ.NS [1, 4]	SSMD.LYZ.NS [1, 5]	SSMD.LYZ.NS [1, 6]	SSMD.LYZ.NS [1, 7]	Z.LYZ.S [2, 4]	Z.LYZ.S [2, 5]	Z.LYZ.S [2, 6]	Z.LYZ.S [2, 7]	SSMD.LYZ.S [2, 4]	SSMD.LYZ.S [2, 5]	SSMD.LYZ.S [2, 6]	SSMD.LYZ.S [2, 7]	Z.CTG ([3]; Dose 0.08 uM)	Z.CTG ([3]; Dose 0.40 uM)	Z.CTG ([3]; Dose 2.00 uM)	Z.CTG ([3]; Dose 10.00 uM)	SSMD.CTG [3, 4]	SSMD.CTG [3, 5]	SSMD.CTG [3, 6]	SSMD.CTG [3, 7]	further results
CCOC(=O)[C@H](CCc1ccccc1)N[C@@H](C)C(=O)N1C(=O)N(C)C[C@H]1C(=O)O [Imidapril HCl]	−0.047	0.004	0.101	−0.541	−0.274	0.702	−0.226	−0.487	−0.269	0.315	−0.262	−0.404	−0.796	−0.354	−0.564	−0.543	−1.054	−0.525	−0.548	−0.699	
NC(=O)c1ccc(I)c([N+](=O)[O-])c1 [Iniparib (BSI-201)]	0.375	0.003	0.109	−0.163	0.205	0.229	−0.006	−0.062	0.148	0.247	−0.005	−0.070	0.810	0.432	0.375	0.583	0.883	0.347	0.475	0.721	Dose.FC.LYZ.NS ([1]; Dose 0.08 uM): 0.042 log 2 fold change; Z.LYZ.NS ([1]; Dose 0.08 uM): 0.364; Dose.FC.LYZ.NS ([1]; Dose 0.40 uM): 0.000 log 2 fold change; Z.LYZ.NS ([1]; Dose 0.40 uM): 0.003; Dose.FC.LYZ.NS ([1]; Dose 2.00 uM): 0.016 log 2 fold change; Z.LYZ.NS ([1]; Dose 2.00 uM): 0.138; Dose.FC.LYZ.NS ([1]; Dose 10.00 uM): −0.016 log 2 fold change; Z.LYZ.NS ([1]; Dose 10.00 uM): −0.139; Dose.FC.LYZ.S ([2]; Dose 0.08 uM): 0.032 log 2 fold change; Dose.FC.LYZ.S ([2]; Dose 0.40 uM): 0.035 log 2 fold change; Dose.FC.LYZ.S ([2]; Dose 2.00 uM): −0.001 log 2 fold change; Dose.FC.LYZ.S ([2]; Dose 10.00 uM): −0.010 log 2 fold change; Dose.FC.CTG ([3]; Dose 0.08 uM): 0.339 log 2 fold change; Dose.FC.CTG ([3]; Dose 0.40 uM): 0.181 log 2 fold change; Dose.FC.CTG ([3]; Dose 2.00 uM): 0.157 log 2 fold change; Dose.FC.CTG ([3]; Dose 10.00 uM): 0.244 log 2 fold change
CCc1c2c(nc3ccc(OC(=O)N4CCC(N5CCCCC5)CC4)cc13)-c1cc3c(c(=O)n1C2)COC(=O)[C@]3(O)CC [Irinotecan HCl Trihydrate]	−0.182	−0.831	−1.832	−2.032	−0.261	−1.020	−1.895	−2.375	−0.311	−0.747	−1.550	−1.941	−0.199	−0.491	−0.758	−1.404	−0.305	−0.694	−1.060	−1.809	
CCc1c2c(nc3ccc(OC(=O)N4CCC(N5CCCCC5)CC4)cc13)-c1cc3c(c(=O)n1C2)COC(=O)[C@]3(O)CC [Irinotecan]	−0.217	−0.556	−1.415	−1.102	−0.023	−0.939	−1.596	−1.624	−0.018	−0.721	−1.400	−1.217	−0.265	−1.872	−1.875	−2.951	−0.378	−1.558	−1.491	−2.716	
